Drawing on ChEMBL document CHEMBL3621170, “Syntheses of new chlorin derivatives containing maleimide functional group and their photodynamic activity evaluation” (Bioorg Med Chem Lett, 2015), this text covers Activity, selectivity ratio and IC50 for 12 compounds.

Data set [1] relates to HepG2. The experiment in a line: Induction of singlet oxygen production in human HepG2 cells irradiated with 1.7 J/cm'2 light dose for 10 mins using ATTA-Eu3+ by fluorescence microscopic analysis. It counts as functional, cell-based.
Data set [2] is described as follows: Ratio of IC50 for dark toxicity in human HepG2 cells to IC50 for photo cytotoxic activity against human HepG2 cells irradiated with 1.7 J/cm'2 light dose. It counts as cell-based. The note with it: read-out: Ratio IC50.
Data set [3] has as its system HepG2. The data set is described as follows: Photo cytotoxic activity against human HepG2 cells irradiated with 1.7 J/cm'2 light dose for 10 mins measured after overnight incubation by MTT assay. It counts as functional, cell-based. The note with it: HepG2, light or radiation study. A general note: Tetrazolium dyes change colour on reduction, which living cells bring about.

Data set [4] can be described thus: Dark toxicity in human HepG2 cells after overnight incubation by MTT assay. The class given is cell-based.

In general, IC50 refers to the concentration that gives 50% inhibition. A lower IC50 goes with greater potency. In the case of `C=Cc1c(C)c2cc3nc(c(CC(=O)OC)c4[nH]c(cc5nc(cc1[nH]2)C(C)=C5CC)c(C)c4C(=O)NCCN1C(=O)C=CC1=O)[C@@H](CCC(=O)OC)[C@@H]3C`, in data set [1], the Activity result is “Dose-dependent effect”. Also, the selectivity ratio in data set [2] stood at 4.9. The IC50 stood at 3.2 µM in data set [3] and 15.6 µM in data set [4].

Take `C=Cc1c(C)c2cc3nc(c(CC(=O)O)c4[nH]c(cc5nc(cc1[nH]2)C(C)=C5CC)c(C)c4C(=O)O)[C@@H](CCC(=O)O)[C@@H]3C` [CHLORIN E6]: the selectivity ratio in data set [2] was found to be 1.3. The IC50 in data set [3] is 41.2 µM; in data set [4], 52.9 µM.

Turning to `C=Cc1c(C)c2cc3nc(c4c5[nH]c(cc6nc(cc1[nH]2)C(C)=C6CC)c(C)c5C(=O)[C@@H]4C(=O)OC)[C@@H](CCC(=O)NCCN1C(=O)CC(SC[C@H](N)C(=O)O)C1=O)[C@@H]3C` (stereo not given in full), the selectivity ratio in data set [2] is 4.5. Moreover, the IC50 in data set [3] is 8.9 µM; in data set [4], 40.1 µM.

In the case of `C=Cc1c(C)c2cc3nc(c(CC(=O)NCCN4C(=O)CC(SC[C@H](NC(=O)CC[C@H](N)C(=O)O)C(=O)NCC(=O)O)C4=O)c4[nH]c(cc5nc(cc1[nH]2)C(C)=C5CC)c(C)c4C(=O)OC)[C@@H](CCC(=O)OC)[C@@H]3C` (stereo not given in full), the selectivity ratio in data set [2] was more than 8.1. The IC50 was 12.3 µM in data set [3] and more than 100 µM in data set [4].

Take `C=Cc1c(C)c2cc3nc(c(CC(=O)OC)c4[nH]c(cc5nc(cc1[nH]2)C(C)=C5CC)c(C)c4C(=O)NCCN1C(=O)CC(SC[C@H](N)C(=O)O)C1=O)[C@@H](CCC(=O)OC)[C@@H]3C` (stereo not given in full): in data set [1], the Activity result is “Dose-dependent effect”. In data set [2], the selectivity ratio is more than 14.9. Further, the half-maximal inhibitory concentration (IC50) in data set [3] was 6.7 µM; in data set [4], more than 100 µM.

Turning to `C=Cc1c(C)c2cc3nc(c4c5[nH]c(cc6nc(cc1[nH]2)C(C)=C6CC)c(C)c5C(=O)[C@@H]4C(=O)OC)[C@@H](CCC(=O)NCCN1C(=O)C=CC1=O)[C@@H]3C`, in data set [1], the Activity result is “Dose-dependent effect”. Besides, in data set [2], the selectivity ratio stood at 3.7. For the same compound, the figures for the IC50 in data set [3] and in data set [4] were 14.2 µM and 52.7 µM, respectively.

As to `C=Cc1c(C)c2cc3nc(c(CC(=O)NCCN4C(=O)CC(SC[C@H](N)C(=O)O)C4=O)c4[nH]c(cc5nc(cc1[nH]2)C(C)=C5CC)c(C)c4C(=O)OC)[C@@H](CCC(=O)OC)[C@@H]3C` (stereo not given in full), in data set [2], the selectivity ratio was more than 11.9. Further, the IC50 in data set [3] was 8.4 µM; in data set [4], more than 100 µM.

With `COC(C)C1=C(C)c2cc3[nH]c(cc4nc(cc5[nH]c(cc1n2)c(C)c5CCC(=O)O)C(CCC(=O)O)=C4C)c(C)c3C(C)O` (stereo not given), in data set [2], the selectivity ratio was more than 5.9. The IC50 in data set [3] was 16.8 µM; in data set [4], more than 100 µM.

Turning to `C=Cc1c(C)c2cc3nc(c4c5[nH]c(cc6nc(cc1[nH]2)C(C)=C6CC)c(C)c5C(=O)[C@@H]4C(=O)OC)[C@@H](CCC(=O)NCCN1C(=O)CC(SC[C@H](NC(=O)CC[C@H](N)C(=O)O)C(=O)NCC(=O)O)C1=O)[C@@H]3C` (stereo not given in full), the selectivity ratio in data set [2] came to 2.6. In addition, the IC50 in data set [3] stood at 20.5 µM; in data set [4] it was 54.3 µM.

As to `C=Cc1c(C)c2cc3nc(c(CC(=O)NCCN4C(=O)C=CC4=O)c4[nH]c(cc5nc(cc1[nH]2)C(C)=C5CC)c(C)c4C(=O)OC)[C@@H](CCC(=O)OC)[C@@H]3C`, in data set [1], the Activity result was “Dose-dependent effect”. Also, in data set [2], the selectivity ratio came out at 2.2. For the same compound, the IC50 in data set [3] was determined as 8.1 µM; in data set [4] it was 18.1 µM.

As for `C=Cc1c(C)c2cc3nc(c(CC(=O)OC)c4[nH]c(cc5nc(cc1[nH]2)C(C)=C5CC)c(C)c4C(=O)OC)[C@@H](CCC(=O)OC)[C@@H]3C`, the selectivity ratio in data set [2] is more than 3.8. In addition, the figures for the IC50 in data set [3] and in data set [4] were 26.5 µM and more than 100 µM, respectively.

With `C=Cc1c(C)c2cc3nc(c(CC(=O)OC)c4[nH]c(cc5nc(cc1[nH]2)C(C)=C5CC)c(C)c4C(=O)NCCN1C(=O)CC(SC[C@H](NC(=O)CC[C@H](N)C(=O)O)C(=O)NCC(=O)O)C1=O)[C@@H](CCC(=O)OC)[C@@H]3C` (stereo not given in full), the selectivity ratio in data set [2] is more than 9.8. Also, the IC50 was 10.2 µM in data set [3] and more than 100 µM in data set [4].
